What was measured:
Fasciola hepatica = assay: Test on sheep infected with Fasciola hepatica (count of liver flukes in the bile ducts after treatment); format: in vivo, Schafe; details: artificially infected sheep, single dose of suspension by stomach tube or rumen injection; 30 and 20 mg/kg Körpergewicht; necropsy 3-4 weeks after treatment
Text: Beispiel 16: Versuch an mit Fasciola hepatica infizierten Schafen
(§1) Der Wirkstoff wird in Form einer Suspension mit einer Magensonde oder durch Pansen-Injektion Schafen verabreicht, die vorher mit Fasciola hepatica künstlich infiziert wurden. Pro Versuch resp. pro Dosis werden 3 Tiere verwendet. Jedes Tier wird mit nur einer einzigen Dosis behandelt.
(§2) Eine erste Evaluierung erfolgt dadurch, dass die Anzahl der vor und nach der Behandlung im Kot der Schafe ausgeschiedenen Wurmeier verglichen werden.
Drei bis vier Wochen nach der Behandlung werden die Schafe getötet und seziert. Die Auswertung erfolgt durch das Auszählen der nach der Behandlung in den Gallengängen zurückgebliebenen Leberegel. Gleichzeitig und gleichartig infizierte aber unbehandelte Schafe dienen als Kontrolle resp. Vergleich. Der Unterschied der in den beiden Gruppen festgestellten Anzahl von Leberegeln ergibt den Wirkungsgrad des geprüften Wirkstoffs.
In diesem Versuch zeigen Wirkstoffe aus der Tabelle I bei Dosen von 30 und 20 mg/kg Körpergewicht stets eine mindestens 95%ige Wirksamkeit gegen Fasciola hepatica. Die Verbindungen Nr. 1, 2, 4, 5, 11, 12 und 13 zeigen jeweils vollständige Wirksamkeit (^= Abtötung 100 %).

[1] = test system: Nematoden wie Haemonchus concortus und Trichostrongylus colubriformis; assay: Test on sheep infected with nematodes (worm count in the intestine after treatment); format: in vivo, Schafe; details: nematode-infected sheep, single dose; at each of the doses 20, 10, 5 and 2 mg/kg; necropsy 7-10 days after treatment
Text: Beispiel 14: Versuch an mit Nematoden wie Haemonchus concortus und Trichostrongylus colubriformis infizierten Schafen
as §1, with “mit Nematoden wie Haemonchus concortus und Trichostrongylus colubriformis” for “mit Fasciola hepatica”, “werden 1 bis” for “werden”, “Jedes Schaf” for “Jedes Tier”
as §2
Sieben bis zehn Tage nach der Behandlung werden die Schafe getötet und seziert. Die Auswertung erfolgt durch Auszählung der nach der Behandlung im Darm zurückbleibenden Würmer. Gleichzeitig und gleichartig infizierte aber unbehandelte Schafe dienen als Kontrolle resp. Vergleich.
Schafe, die mit einer Suspension eines Wirkstoffes aus der Tabelle I behandelt werden, zeigen im Vergleich zu unbehandelten, aber infizierten Vergleichsgruppen einen um mindestens 95 i reduzierten Nematodenbefall. Die Wirkungsdosis beträgt 20, 10, 5 und 2 mg/kg. Mit den Verbindungen Nr. 1, 2, 4, 11, 12 und 13 wird bei jeder der Dosen 100 % Wirkung erzielt.

| SMILES | Wirksamkeit gegen Fasciola hepatica (Abtötung) (Fasciola hepatica) [%] | Wirkung [1] [%] |
| --- | --- | --- |
| CC(C)c1cc(Oc2ccc(C(F)(F)F)cc2)ccc1NC(=O)C1C(=O)N(C)C(=O)N(C)C1=O [compound 1] | 100 | 100 |
| Cc1cc(Oc2ccc(C(F)(F)F)cc2)cc(C)c1NC(=O)C1C(=O)N(C)C(=O)N(C)C1=O [compound 2] | 100 | 100 |
| Cc1cc(Oc2ccc(C(F)(F)F)cc2)ccc1NC(=O)C1C(=O)N(C)C(=O)N(C)C1=O [compound 4] | 100 | 100 |
| C=CCN1C(=O)C(C(=O)Nc2ccc(Oc3ccc(C(F)(F)F)cc3)cc2C)C(=O)N(C)C1=O (stereo not shown) [compound 5] | 100 |  |
| Cc1cc(Oc2ccc(C(F)(F)F)cc2)cc(C)c1NC(=O)C1C(=O)N(C)C(=O)N(C2CC2)C1=O (stereo not shown) [compound 11] | 100 | 100 |
| C=CCN1C(=O)C(C(=O)Nc2c(C)cc(Oc3ccc(C(F)(F)F)cc3)cc2C)C(=O)N(C)C1=O (stereo not shown) [compound 12] | 100 | 100 |
| CC(C)c1cc(Oc2ccc(C(F)(F)F)cc2)ccc1NC(=O)C1C(=O)N(C)C(=O)N(C2CC2)C1=O (stereo not shown) [compound 13] | 100 | 100 |
